Measurements taken from patent publication US20200085812A1, “HEAT SHOCK PROTEIN INDUCERS AND FRONTOTEMPORAL DISORDERS” (Orphazyme A/S, priority 2017, published 2020).

How the values were obtained:
mutant VCP (mVCP) mice [1] = assay: In vivo physiology of EDL muscle: motor unit counts and maximal tetanic force; parameters: species or system mouse; details: 4 to 14 months, FIG. 1
Description: (§1) Arimoclomol treatment: Male mutant VCP (mVCP) mice were treated with Arimoclomol (120 mg/kg daily; orally in drinking water), from the start of symptom onset at 4 months, until close to end-stage at 14 months. Transgenic mice over-expressing wild-type human VCP (wt-VCP) were used as controls, and 10 male mice per group were studied; a sample size sufficient to test for statistical significance at P<0.05 in a single sex group.
In vivo physiology was carried out acutely at 14 months of age on terminally anaesthetized mice to quantify the number of motor units in the extensor digitorum longus (EDL) muscle in the hindlimb of mice in all experimental groups. Briefly, Isometric contractions were elicited by stimulating the Extensor Digitorum Longus (EDL) motor nerve using pulses of 0.02 ms duration and supramaximal intensity via electrodes. Contractions were elicited by stimulation of the sciatic nerve. The number of motor units in the EDL muscles was determined by stimulating the motor nerve with stimuli of increasing intensity, resulting in stepwise increments in twitch tension because of successive recruitment of motor axons.

mutant VCP (mVCP) mice [2] = assay: Motor neuron counts and area measurements, sciatic pool of spinal cord; format: in vivo, mouse; details: 120 mg/kg daily orally, 4 to 14 months, FIG. 2
Description: as §1
20 μm spinal cord sections from L3-L6 were stained with gallocyanin to visualise neurons for quantification (5 mice per group). […] 20 images of the sciatic pool regions of the spinal cord were taken per animal to measure the size distribution of motor neurons present in this area (at ×20 magnification). A minimum of 3 mice per experimental group were assessed. The soma area of motor neurons was determined by drawing around individual Nissl stained (gallocyanin) motor neuron cell bodies in cross-sectional images of L4-L5 region of the spinal cord. This was recorded using Leica Application Suite V3.8 analysis software and presented as a percentage of the total number of motor neurons per group.

mutant VCP (mVCP) mice [3] = assay: Immunohistochemistry of brain and spinal cord for pathology markers (TDP-43, ubiquitin, p-tau, p62, LC3, myelin, stress granule markers); format: in vivo, mouse; details: 120 mg/kg daily orally, 4 to 14 months
Description: as §1
(§2) Brain and spinal cords were harvested from mice in all experimental groups following transcardial perfusion with saline followed by 4% paraformaldehyde (PFA). Brain and spinal cords were then kept in 4% PFA for 12 hours before being transferred to a 30% sucrose solution. Cross-sections of brain and spinal cords were cut at 20 μm and blocked in 10% Normal Goat serum with 0.1% Triton X100 in PBS before primary antibodies were added for 1 hour at room temperature. Primary antibodies: Rabbit anti-TDP-43 [1:500], Rabbit anti-ubiquitin [1:500], mouse anti-phospho tau (AT8) [1:100], Rabbit/mouse anti-Beta-3 tubulin [1:100], mouse anti-HSP70 [1:100], Mouse anti-p62 [1:200], Rabbit anti-LC3 [1:500]Rabbit anti-Iba1 [1:100], anti neurofilament 2H3 [1:20], Synaptic vesicle protein [1:20], Fluoromyelin Red myelin stain [1:300]. Fluorescently labelled or biotinylated secondary antibodies were used 1:1000 for 2 hours at room temperature. 4′6-Diamidino-2-Phenylindole, Dihydrochloride (DAPI) was used to counterstain for nuclei in all fluorescent images. Imaging of tissue was using a standard Leica light/fluorescent microscope or a LSM 780 confocal microscope.
(§3) Fluorescent images were visualised under a Leica fluorescent microscope and analysed using Leica Application Suite software (Leica Microsystems, Germany).

HSP70 [4] = assay: HSP70 immunostaining of brain and spinal cord of mVCP mice; format: in vivo, mouse
Description: as §1, §2, §3

mutant VCP (mVCP) mice [5] = assay: TUNEL assay for apoptotic cells in brain; format: in vivo, mouse; details: 120 mg/kg daily orally, 4 to 14 months, FIG. 9
Description: as §1
Apoptosis in the brain was assessed by Terminal deoxynucleotidyl transferase (TdT) dUTP Nick-End Labeling (TUNEL) assay for apoptotic cells, where nuclei containing double-stranded breaks in the DNA fluoresce green (Fluoroscein-tagged), indicating DNA degradation at the later stage of apoptosis (FIG. 9). In some mVCP mice, TUNEL-positive nuclei in small areas of layer I in the cortex were detected which were not seen in control animals, indicating brain cells undergoing apoptosis.

[6] = tested on: iPSC-derived motor neurons from mVCP patients; assay: TDP-43 immunostaining of mVCP patient iPSC-derived motor neurons; format: cell-based, human; details: 10 μM for 24 hours, FIG. 12 A
Description: (§4) iPSCs were maintained on Geltrex (Life Technologies) with Essential 8 Medium media (Life Technologies), and passaged using EDTA (Life Technologies, 0.5 mM). All cell cultures were maintained at 37° C. and 5% carbon dioxide. Motor neuron (MN) differentiation was carried out using a previously published protocol (Hall et al., 2017). Briefly, iPSCs were first differentiated to neuroepithelium by plating to 100% confluency in chemically defined medium consisting of DMEM/F12 Glutamax, Neurobasal, LGlutamine, N2 supplement, non-essential amino acids, B27 supplement, […] (all from Life Technologies) and insulin (Sigma). Treatment with small molecules from day 0-7 was as follows: 1 μM Dorsomorphin (Sigma), 2 μM SB431542 (Sigma), and 3 μM CHIR99021 (Sigma). At day 8, the neuroepithelial layer was enzymatically dissociated using dispase (GIBCO, 1 mg/ml), plated onto Geltrex coated plates and next patterned for 7 days with 0.5 μM retinoic acid and 1 μM Purmorphamine. At day 14 spinal cord MN precursors were treated with 0.1 μM Purmorphamine for a further 4 days before being terminally differentiated in 0.1 μM Compound E (Sigma) to promote cell cycle exit. Cells were treated with 10 μM Arimoclomol for 24 hours following terminal differentiation and fixed in PFA for immuno-labelling.

HSP70 [7] = assay: HSP70 immunostaining of mVCP patient iPSC-derived motor neurons; format: cell-based, human; details: 10 μM for 24 hours, FIG. 12 B
Description: as §4

mutant VCP (mVCP) mice [8] = details: cited from earlier work
HSP70 [9] = details: treated versus untreated mVCP mice; cited from earlier work
[10] = mVCP mice treated with Arimoclomol, previously published study

[O-][n+]1cccc(/C(Cl)=N/OC[C@H](O)CN2CCCCC2)c1 [Arimoclomol, N-[2-hydroxy-3-(1-piperidinyl)-propoxy]-pyridine-1-oxide-3-carboximidoyl chloride]
number of motor units in EDL muscle (motor unit survival) (mutant VCP (mVCP) mice [1]; 120 mg/kg daily orally in drinking water): reduction in motor unit survival is prevented
muscle force generated by the EDL muscle (mutant VCP (mVCP) mice [1]; 120 mg/kg daily orally, versus untreated mice): significantly greater than in untreated mice
motor neuron survival in sciatic pool (L3-6) of spinal cord (mutant VCP (mVCP) mice [2]): reduction in motor neuron survival is prevented
shift towards smaller motor neuron soma size (mutant VCP (mVCP) mice [2]): This shift is not seen
accumulation of p62 in spinal cord (mutant VCP (mVCP) mice [3]; FIG. 5): significantly ameliorated
myelin abnormalities in spinal cord (mutant VCP (mVCP) mice [3]; FIG. 5): significantly ameliorated
increased LC3 expression in spinal cord (mutant VCP (mVCP) mice [3]; FIG. 5 D): significantly ameliorated
phosphorylated tau-positive (p-tau) extracellular aggregates/lesions in brain (mutant VCP (mVCP) mice [3]; FIG. 6): prevents the formation of these proteinaceous aggregates
TDP-43 cytoplasmic mislocalisation in brain and spinal cord (mutant VCP (mVCP) mice [3]; FIGS. 3 and 4): TDP-43 mislocalisation was reduced
ubiquitin-positive intracellular aggregates in brain and spinal cord (mutant VCP (mVCP) mice [3]; FIGS. 5 and 6): prevents the formation of these proteinaceous aggregates
fluorescence intensity of HSP70 immunoreactivity in spinal cord (quantification) (HSP70 [4]; mVCP mice treated versus untreated, FIG. 8 B): enhanced
HSP70 expression in glial cells of spinal cord and brain (HSP70 [4]; mVCP mice, 120 mg/kg daily orally, 4 to 14 months): increased expression of HSP70
HSP70 expression in brain and spinal cord (HSP70 [4]; mVCP mice, 120 mg/kg daily orally, 4 to 14 months, versus untreated mVCP, FIGS. 7 and 8): further augmented
TUNEL-positive apoptotic cells in brain cortex (mutant VCP (mVCP) mice [5]): prevented the appearance of apoptotic cells
cytoplasmic mislocalisation of TDP-43 [6]: ameliorated
HSP70 expression (HSP70 [7]): substantially increased
maximal tetanic force of EDL muscle (mutant VCP (mVCP) mice [8]; 14 month old mVCP mice, versus wt-VCP controls, previously published study): prevented this reduction in muscle force
myofibre atrophy and degeneration (mutant VCP (mVCP) mice [8]; [10]): reduced myofibre atrophy and degeneration
protein aggregation and TDP-43 mislocalisation in skeletal muscle (mutant VCP (mVCP) mice [8]; [10]): decreased protein aggregation and TDP-43 mislocalisation
decline in grip strength relative to body weight (mutant VCP (mVCP) mice [8]; mVCP mice, 4 to 14 months of age, untreated mVCP 44.1% reduction): no significant decline in grip strength
expression of HSP70 in muscle (Western blot) (HSP70 [9]): two-fold
